# Reference: ChEMBL document CHEMBL1201862, “PubChem BioAssay data set” (2004)
# Active and inactive are the calls of the source.
# Key:
# [1] = molecular target: G-protein coupled receptor 55 (Homo sapiens, UniProt Q9Y2T6); test: selective activators of receptor GPR55 – imaging, U2OS cells, beta-arrestin-GFP redistribution, primary screen (AID 1961); type: functional
# [2] = molecular target: DNA dC->dU-editing enzyme APOBEC-3A (Homo sapiens, UniProt P31941); test: A3A deaminase inhibition for selectivity – biochemical, dose response (AID 504722); type: functional
# [3] = molecular target: DNA dC->dU-editing enzyme APOBEC-3G (Homo sapiens, UniProt Q9HC16); test: Dose Response confirmation of small molecule APOBEC3G DNA Deaminase Inhibitors via a fluorescence-based single-stranded DNA deaminase assay. [Related pubchem assays (depositor defined):AID493012, AID493028]; type: functional
# [4] = molecular target: T1, SUMO-activating enzyme (Homo sapiens, UniProt Q9UBT2); test: blockers of UBC9-mediated SUMO conjugation – biochemical, AlphaScreen, SUMOylation inhibitor project, confirmation (AID 2018); type: functional
# [5] = molecular target: T1, SUMO-activating enzyme; test: blockers of SAE1/SAE2–UBC9 SUMO transfer – biochemical, HTRF, uHTS, primary screen (AID 2006); type: protein-complex assay
# [6] = molecular target: Induced myeloid leukemia cell differentiation protein Mcl-1 (Homo sapiens, UniProt Q07820); type: functional
# [7] = molecular target: Genome polyprotein (dengue virus type 2, UniProt P29990); test: flavivirus cap methylation enzyme inhibition – biochemical, confirmation dose response, primary screen (AID 588689); type: functional
# [8] = system: HEK293; test: inhibition of NOD1-driven NF-kB reporter – cell-based, luminescence, uHTS, primary screen (AID 1578); type: functional; details: Homo sapiens
# [9] = system: HEK293; test: cells; type: functional, cell-based; details: Homo sapiens
# [10] = system: HEK293; test: cells; type: functional, cell-based; details: Homo sapiens; remark: listed apart in the source
# [11] = system: HEK293; test: NOD2 signaling inhibitors in MDP-stimulated cells, cell-based, uHTS, luminescence (AID 2001); type: functional; details: Homo sapiens
# [12] = molecular target: T2, Replicative DNA helicase DnaB (Mycobacterium tuberculosis, UniProt P9WMR3); test: DnaB intein splicing inhibitors, dose response, biochemical, cell-free fluorescence (AID 449749); type: functional
# T2 sequence (P9WMR3 whole entry): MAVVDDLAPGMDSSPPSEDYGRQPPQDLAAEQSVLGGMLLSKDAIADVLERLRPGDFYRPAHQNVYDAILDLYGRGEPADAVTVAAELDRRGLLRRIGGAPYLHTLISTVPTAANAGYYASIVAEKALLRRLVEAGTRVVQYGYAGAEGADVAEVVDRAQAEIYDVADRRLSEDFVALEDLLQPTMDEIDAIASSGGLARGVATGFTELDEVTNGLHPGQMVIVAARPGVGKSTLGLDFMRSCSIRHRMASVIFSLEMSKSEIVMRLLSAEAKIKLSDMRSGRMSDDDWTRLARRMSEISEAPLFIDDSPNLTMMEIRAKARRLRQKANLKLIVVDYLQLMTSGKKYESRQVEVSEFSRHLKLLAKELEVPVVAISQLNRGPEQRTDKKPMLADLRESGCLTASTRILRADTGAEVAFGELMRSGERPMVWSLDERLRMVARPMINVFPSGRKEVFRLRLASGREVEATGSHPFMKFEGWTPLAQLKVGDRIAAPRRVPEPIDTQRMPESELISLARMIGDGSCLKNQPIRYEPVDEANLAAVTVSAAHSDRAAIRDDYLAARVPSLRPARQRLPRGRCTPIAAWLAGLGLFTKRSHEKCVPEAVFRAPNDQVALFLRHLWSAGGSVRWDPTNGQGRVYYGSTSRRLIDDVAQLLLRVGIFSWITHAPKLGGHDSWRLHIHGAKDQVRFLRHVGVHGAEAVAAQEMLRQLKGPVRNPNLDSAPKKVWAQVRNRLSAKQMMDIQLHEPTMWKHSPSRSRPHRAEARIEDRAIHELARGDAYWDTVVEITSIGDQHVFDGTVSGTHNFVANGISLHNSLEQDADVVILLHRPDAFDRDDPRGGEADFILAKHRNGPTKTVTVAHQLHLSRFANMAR
# [13] = molecular target: T3, Protein RecA (Mycobacterium tuberculosis, UniProt P9WHJ3); test: Fluorescence Cell-Free Homogeneous Dose Retest to Identify Inhibitors of RecA-Intein Splicing Activity. [Related pubchem assays (depositor defined):AID2097, AID2223, AID489010, AID492950]; type: functional
# T3 sequence (P9WHJ3 whole entry): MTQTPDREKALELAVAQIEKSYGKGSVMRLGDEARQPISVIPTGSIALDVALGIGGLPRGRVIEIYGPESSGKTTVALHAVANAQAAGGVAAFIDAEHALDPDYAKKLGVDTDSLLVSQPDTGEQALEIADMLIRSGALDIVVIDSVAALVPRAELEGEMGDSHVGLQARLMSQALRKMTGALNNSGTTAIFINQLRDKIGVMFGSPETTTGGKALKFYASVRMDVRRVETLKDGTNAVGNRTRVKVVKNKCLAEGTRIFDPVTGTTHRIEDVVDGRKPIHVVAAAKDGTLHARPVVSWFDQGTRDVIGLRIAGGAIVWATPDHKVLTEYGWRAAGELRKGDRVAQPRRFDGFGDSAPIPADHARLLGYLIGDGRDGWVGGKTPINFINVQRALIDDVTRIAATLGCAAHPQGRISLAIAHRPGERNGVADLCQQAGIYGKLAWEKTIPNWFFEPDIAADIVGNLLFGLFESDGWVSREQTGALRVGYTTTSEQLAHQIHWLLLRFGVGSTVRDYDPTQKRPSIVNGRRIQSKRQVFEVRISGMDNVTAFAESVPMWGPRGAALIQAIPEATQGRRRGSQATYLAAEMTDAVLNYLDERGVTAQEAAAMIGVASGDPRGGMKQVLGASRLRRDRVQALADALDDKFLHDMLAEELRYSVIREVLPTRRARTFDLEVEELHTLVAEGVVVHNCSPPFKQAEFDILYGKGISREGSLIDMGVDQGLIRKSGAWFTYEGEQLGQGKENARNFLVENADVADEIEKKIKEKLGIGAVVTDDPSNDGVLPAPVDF
# [14] = molecular target: Glyceraldehyde-3-phosphate dehydrogenase (Homo sapiens, UniProt P04406)
# [15] = molecular target: T4, Alkaline phosphatase, tissue-nonspecific isozyme (Homo sapiens, UniProt P05186); test: potency against alkaline phosphatase TNAP – biochemical, luminescent, dose response, SAR follow-up (AID 1056)
# T4 sequence (P05186 whole entry): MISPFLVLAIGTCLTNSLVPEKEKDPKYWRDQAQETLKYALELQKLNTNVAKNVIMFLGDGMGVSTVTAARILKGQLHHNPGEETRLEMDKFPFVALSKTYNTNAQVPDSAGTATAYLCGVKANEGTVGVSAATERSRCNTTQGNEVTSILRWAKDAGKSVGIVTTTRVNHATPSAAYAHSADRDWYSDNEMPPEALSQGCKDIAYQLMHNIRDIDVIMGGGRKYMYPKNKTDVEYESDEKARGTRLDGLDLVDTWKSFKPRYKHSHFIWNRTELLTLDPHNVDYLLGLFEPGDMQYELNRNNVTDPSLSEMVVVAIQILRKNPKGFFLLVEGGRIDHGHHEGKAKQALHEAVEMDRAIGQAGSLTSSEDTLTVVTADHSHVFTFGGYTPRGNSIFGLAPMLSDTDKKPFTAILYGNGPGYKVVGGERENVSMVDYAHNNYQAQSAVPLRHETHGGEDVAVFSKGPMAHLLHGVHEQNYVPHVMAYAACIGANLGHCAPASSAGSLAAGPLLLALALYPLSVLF
# [16] = system: Streptococcus sp. 'group A'; test: Streptococcus pyogenes SK(-)GAS viability under kanamycin – luminescence, BacTiterGlo, confirmation, counter-screen for streptokinase expression inhibitor project, dose response (AID 1900); type: functional, organism-based
# [17] = molecular target: T5, Streptokinase A (Streptococcus pyogenes serotype M1, UniProt P10520); test: viability-normalized secreted streptokinase activity reduction – plasminogen activation absorbance, OD405, dose response (AID 1914); type: functional, Streptococcus pyogenes M1 GAS;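 also: secreted streptokinase activity via plasminogen activation per viability signal from cell pellet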
# T5 sequence (P10520 whole entry): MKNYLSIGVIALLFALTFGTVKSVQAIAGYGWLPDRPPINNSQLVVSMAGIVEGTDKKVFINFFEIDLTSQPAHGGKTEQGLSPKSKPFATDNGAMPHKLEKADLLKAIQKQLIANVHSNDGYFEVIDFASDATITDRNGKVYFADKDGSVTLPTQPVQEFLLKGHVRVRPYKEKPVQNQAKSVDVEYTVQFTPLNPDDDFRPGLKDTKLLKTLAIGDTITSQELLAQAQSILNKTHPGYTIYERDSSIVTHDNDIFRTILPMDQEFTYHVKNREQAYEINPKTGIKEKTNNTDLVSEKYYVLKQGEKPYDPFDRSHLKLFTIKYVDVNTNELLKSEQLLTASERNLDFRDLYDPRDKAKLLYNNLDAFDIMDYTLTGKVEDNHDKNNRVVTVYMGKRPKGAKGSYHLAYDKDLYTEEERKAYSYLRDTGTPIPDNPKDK
# [18] = system: Streptococcus; test: GAS UMAA2166 growth inhibition – luminescence, BacTiterGlo, counter-screen for streptokinase expression inhibitor project, dose response (AID 1915); type: functional, organism-based;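 also: potency for reduction of bacterial viability or growth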
# [19] = molecular target: Beta-galactosidase (Escherichia coli, UniProt Q8VNN2); test: detection-enzyme interference by beta-gal modulators – biochemical, E. coli enzyme, set 3, artefact control for CCR6 antagonist project, dose response (AID 504712); type: functional
# [20] = molecular target: Nucleotide-binding oligomerization domain-containing protein 2 (Homo sapiens, UniProt Q9HC29); test: inhibition of NOD2-driven NF-kB reporter – cell-based, luminescence, uHTS, HEK293 (AID 1566); type: functional
# [21] = system: HEK293; test: cells; type: functional, cell-based; details: Homo sapiens; remark: listed apart in the source
# [22] = system: BJ; test: BJ-TERT fibroblast viability loss – cell-based, RAS-independent, luminescence, dose response (AID 1933); type: functional; details: Homo sapiens
# [23] = system: BJ; test: cells; type: functional, cell-based; details: Homo sapiens
# [24] = system: BJ; test: BJ-TERT-LT-ST fibroblast viability loss – cell-based, RAS-independent, luminescence, dose response (AID 1935); type: functional; details: Homo sapiens;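 also: BJ fibroblasts immortalized with TERT plus LT and ST oncogenes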
# [25] = DRD fibroblast viability loss – cell-based, non-viral oncogenic, luminescence, dose response (AID 1934); type: functional; details: Homo sapiens
# [26] = molecular target: T6, Microphthalmia-associated transcription factor (Homo sapiens, UniProt O75030); test: reducers of TRPM1 reporter luminescence, concentration series – cell-based, SK-MEL-5, cherry-picked, set 3, MITF inhibitor project, dose response (AID 493073); type: functional;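 also: SK-MEL-5 melanoma cells with luciferase driven by the MITF target TRPM1 promoter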
# T6 sequence (O75030 whole entry): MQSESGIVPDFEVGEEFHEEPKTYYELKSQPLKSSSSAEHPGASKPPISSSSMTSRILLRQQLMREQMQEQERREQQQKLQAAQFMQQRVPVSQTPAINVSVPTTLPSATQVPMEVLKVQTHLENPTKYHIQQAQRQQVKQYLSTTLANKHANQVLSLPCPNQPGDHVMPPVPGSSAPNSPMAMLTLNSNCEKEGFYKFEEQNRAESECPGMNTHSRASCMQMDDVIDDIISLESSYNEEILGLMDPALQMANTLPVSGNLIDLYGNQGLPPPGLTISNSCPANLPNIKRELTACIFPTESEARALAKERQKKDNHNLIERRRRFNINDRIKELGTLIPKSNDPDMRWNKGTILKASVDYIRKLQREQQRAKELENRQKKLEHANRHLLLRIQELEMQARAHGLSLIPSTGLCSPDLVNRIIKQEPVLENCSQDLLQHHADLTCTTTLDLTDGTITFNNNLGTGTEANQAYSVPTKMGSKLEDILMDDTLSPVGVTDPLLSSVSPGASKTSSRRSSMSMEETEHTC
# Sequence of G-protein coupled receptor 55 (Q9Y2T6 whole entry): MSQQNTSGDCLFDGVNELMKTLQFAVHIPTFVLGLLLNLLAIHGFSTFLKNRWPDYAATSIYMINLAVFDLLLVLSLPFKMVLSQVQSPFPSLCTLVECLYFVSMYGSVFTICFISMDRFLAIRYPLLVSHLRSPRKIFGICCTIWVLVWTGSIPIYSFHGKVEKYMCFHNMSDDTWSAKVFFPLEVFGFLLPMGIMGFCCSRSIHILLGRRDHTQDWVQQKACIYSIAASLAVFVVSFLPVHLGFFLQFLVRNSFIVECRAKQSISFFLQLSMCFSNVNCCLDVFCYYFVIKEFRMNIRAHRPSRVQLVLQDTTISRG
# Sequence of Nucleotide-binding oligomerization domain-containing protein 2 (Q9HC29 whole entry, the tested form may be a part): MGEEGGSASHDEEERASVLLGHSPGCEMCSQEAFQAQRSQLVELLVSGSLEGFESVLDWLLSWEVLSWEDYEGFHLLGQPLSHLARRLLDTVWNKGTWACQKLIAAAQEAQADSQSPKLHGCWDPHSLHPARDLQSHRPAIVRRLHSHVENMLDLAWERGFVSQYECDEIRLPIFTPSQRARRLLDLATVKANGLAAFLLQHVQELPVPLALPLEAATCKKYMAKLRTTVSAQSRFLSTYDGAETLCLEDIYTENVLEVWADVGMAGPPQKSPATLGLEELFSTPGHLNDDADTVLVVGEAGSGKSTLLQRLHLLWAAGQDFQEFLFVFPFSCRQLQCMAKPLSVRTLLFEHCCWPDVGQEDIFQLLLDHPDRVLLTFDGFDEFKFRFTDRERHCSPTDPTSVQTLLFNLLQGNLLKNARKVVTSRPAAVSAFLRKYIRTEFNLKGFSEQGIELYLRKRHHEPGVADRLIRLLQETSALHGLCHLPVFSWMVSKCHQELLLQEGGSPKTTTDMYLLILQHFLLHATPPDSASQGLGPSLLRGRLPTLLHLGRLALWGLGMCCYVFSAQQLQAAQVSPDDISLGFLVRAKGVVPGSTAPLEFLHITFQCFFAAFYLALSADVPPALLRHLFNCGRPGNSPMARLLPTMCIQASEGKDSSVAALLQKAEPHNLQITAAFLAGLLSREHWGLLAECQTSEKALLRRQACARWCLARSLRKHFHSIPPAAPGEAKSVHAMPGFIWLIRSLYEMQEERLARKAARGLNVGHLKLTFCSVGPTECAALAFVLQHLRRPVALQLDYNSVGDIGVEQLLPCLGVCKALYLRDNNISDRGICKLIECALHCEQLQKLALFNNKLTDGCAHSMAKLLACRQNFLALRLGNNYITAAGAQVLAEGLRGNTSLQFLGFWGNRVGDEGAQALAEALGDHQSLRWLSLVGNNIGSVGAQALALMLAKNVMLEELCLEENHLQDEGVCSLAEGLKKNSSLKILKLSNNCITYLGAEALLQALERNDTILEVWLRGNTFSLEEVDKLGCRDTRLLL
# T1 sequence (Q9UBE0 whole entry): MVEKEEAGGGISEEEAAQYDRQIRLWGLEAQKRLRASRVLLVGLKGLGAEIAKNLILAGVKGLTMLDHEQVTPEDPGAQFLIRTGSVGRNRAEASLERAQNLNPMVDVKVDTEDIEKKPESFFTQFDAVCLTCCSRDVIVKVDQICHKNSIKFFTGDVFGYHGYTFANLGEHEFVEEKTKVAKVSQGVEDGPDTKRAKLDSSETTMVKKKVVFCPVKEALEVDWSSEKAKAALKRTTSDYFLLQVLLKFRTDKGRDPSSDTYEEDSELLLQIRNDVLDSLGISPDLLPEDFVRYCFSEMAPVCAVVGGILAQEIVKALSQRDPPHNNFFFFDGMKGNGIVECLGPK
# T1 sequence (Q9UBT2 whole entry): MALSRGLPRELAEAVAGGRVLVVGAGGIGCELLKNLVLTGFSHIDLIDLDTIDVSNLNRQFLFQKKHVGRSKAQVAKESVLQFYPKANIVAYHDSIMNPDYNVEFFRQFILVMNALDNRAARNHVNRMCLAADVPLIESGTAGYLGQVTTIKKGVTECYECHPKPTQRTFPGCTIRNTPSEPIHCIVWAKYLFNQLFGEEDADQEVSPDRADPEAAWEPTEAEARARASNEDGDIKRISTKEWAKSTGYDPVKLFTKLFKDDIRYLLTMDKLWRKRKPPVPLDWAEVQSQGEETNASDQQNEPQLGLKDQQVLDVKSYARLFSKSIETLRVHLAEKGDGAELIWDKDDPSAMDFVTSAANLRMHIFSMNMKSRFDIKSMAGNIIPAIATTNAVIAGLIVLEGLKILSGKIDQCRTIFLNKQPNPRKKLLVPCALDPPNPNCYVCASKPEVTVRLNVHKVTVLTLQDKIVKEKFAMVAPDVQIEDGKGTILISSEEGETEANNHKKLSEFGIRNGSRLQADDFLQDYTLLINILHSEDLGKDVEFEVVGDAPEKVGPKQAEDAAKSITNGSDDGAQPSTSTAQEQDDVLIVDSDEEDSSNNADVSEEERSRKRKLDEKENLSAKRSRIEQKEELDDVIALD
# Sequence of Induced myeloid leukemia cell differentiation protein Mcl-1 (Q07820 whole entry): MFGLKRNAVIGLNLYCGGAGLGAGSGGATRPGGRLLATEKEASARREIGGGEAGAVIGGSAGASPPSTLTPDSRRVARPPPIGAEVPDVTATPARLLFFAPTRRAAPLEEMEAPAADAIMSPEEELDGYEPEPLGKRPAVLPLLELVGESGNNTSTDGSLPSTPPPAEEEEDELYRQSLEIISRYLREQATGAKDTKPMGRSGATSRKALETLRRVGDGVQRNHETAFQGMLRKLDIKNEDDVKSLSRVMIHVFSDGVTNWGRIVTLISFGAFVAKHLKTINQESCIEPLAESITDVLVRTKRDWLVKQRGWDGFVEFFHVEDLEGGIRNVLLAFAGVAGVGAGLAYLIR
# Sequence of Glyceraldehyde-3-phosphate dehydrogenase (P04406 whole entry): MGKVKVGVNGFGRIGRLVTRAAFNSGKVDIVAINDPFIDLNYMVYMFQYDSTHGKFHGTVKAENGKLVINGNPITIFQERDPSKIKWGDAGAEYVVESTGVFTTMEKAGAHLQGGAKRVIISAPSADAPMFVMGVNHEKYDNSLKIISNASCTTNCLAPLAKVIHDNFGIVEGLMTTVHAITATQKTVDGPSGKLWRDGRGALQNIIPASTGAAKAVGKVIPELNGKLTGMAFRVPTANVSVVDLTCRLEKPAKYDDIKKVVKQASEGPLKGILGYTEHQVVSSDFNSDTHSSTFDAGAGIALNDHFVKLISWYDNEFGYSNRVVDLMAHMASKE
# Sequence of DNA dC->dU-editing enzyme APOBEC-3G (Q9HC16 whole entry): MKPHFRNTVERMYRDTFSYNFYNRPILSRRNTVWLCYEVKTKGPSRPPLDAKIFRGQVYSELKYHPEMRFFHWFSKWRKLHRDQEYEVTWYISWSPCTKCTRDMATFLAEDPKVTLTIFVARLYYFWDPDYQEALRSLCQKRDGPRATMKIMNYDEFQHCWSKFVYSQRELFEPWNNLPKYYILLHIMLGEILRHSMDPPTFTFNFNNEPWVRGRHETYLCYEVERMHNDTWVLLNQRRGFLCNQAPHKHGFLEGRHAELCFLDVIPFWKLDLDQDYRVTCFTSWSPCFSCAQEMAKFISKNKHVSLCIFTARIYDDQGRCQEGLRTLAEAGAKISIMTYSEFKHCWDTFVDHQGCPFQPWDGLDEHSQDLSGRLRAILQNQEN
# Sequence of DNA dC->dU-editing enzyme APOBEC-3A (P31941 whole entry): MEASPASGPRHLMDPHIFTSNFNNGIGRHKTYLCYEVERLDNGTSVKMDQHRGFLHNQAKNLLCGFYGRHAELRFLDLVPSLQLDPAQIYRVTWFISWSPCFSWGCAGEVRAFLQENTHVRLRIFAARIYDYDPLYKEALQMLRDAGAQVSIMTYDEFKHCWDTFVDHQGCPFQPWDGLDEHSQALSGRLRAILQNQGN
# Sequence of Genome polyprotein (P29990 2492-3391 limits assumed): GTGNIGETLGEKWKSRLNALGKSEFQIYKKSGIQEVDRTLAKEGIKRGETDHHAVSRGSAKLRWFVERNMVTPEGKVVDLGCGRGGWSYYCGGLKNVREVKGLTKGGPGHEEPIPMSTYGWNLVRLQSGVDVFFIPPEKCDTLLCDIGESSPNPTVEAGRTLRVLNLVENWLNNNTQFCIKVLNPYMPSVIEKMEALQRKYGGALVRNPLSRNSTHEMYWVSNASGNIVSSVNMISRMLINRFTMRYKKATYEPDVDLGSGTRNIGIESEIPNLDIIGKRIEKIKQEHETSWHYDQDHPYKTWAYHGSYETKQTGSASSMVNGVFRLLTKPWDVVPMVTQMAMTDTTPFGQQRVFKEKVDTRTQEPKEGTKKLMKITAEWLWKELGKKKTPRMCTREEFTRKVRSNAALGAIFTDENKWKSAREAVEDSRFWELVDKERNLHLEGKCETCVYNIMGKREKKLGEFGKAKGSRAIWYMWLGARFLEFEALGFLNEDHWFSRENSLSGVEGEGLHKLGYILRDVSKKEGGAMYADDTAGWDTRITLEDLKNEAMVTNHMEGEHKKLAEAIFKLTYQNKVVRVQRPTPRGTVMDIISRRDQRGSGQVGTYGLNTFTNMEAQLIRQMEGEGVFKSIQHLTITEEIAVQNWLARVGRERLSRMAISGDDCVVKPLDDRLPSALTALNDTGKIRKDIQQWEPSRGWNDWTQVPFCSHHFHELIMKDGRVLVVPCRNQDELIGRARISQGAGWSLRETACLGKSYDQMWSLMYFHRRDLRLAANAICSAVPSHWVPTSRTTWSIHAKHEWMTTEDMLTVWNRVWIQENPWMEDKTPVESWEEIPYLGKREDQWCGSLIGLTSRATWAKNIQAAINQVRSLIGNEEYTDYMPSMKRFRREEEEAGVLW
structure (smiles),measurement,setting,value
Cc1ccc(SC[C@H](Cc2ccccc2)N2CC[C@@H](NC(=O)OCc3ccccc3)CCC2=O)cc1,EC50,[1],1.42 µM (active)
Sc1nc2cc(Br)c[nH]c-2n1,IC50,[2],> 100 µM (inactive)
same,IC50,[3],2.94 µM (active)
Cc1[nH]n(-c2ncc(-c3ccccc3)s2)c(=O)c1C(c1ccc(Cl)cc1)C(C#N)C#N (centres undefined),IC50,[4],7.91 µM (active)
same,IC50,[5],28.8 µM (active)
same,IC50,[6],8.69 µM (active)
same,IC50,[7],31.9 µM (active)
CC(C)CCn1c(Sc2nc3ccccc3o2)nc2c1c(=O)[nH]c(=O)n2C,EC50,[8],> 20 µM (inactive)
same,IC50,[9],7.89 µM (active)
same,IC50,[10],> 20 µM (inactive)
same,IC50,[11],5.79 µM (active)
same,AC50,[12],> 380 µM (inconclusive)
same,EC50,[13],4.76 µM (active)
COc1ccc(C(C)C)cc1S(=O)(=O)Nc1cccnc1,IC50,[14],> 100 µM (not active)
same,IC50,[15],> 100 µM (inactive)
COc1cccc(C(=O)NC(=S)N2CCN(c3ccc(C(F)(F)F)cc3[N+](=O)[O-])CC2)c1,EC50,[16],> 150 µM (not active)
same,EC50,[17],> 150 µM (not active)
same,EC50,[18],> 150 µM (not active)
same,IC50,[19],> 66.6 µM (inactive)
COCCN(Cc1ccccc1)C(=O)c1cc(-c2ccc(OC)c(OC)c2)nc2ccccc12,EC50,[8],> 20 µM (inactive)
same,IC50,[9],> 20 µM (inactive)
same,IC50,[10],> 20 µM (inactive)
same,EC50,[20],> 20 µM (inactive)
same,IC50,[11],> 20 µM (inactive)
same,IC50,[21],16.3 µM (active)
O=C(CCl)Nc1cccc(S(=O)(=O)N2CCCCCC2)c1,EC50,[8],10.1 µM (active)
same,EC50,[22],4.64 µM (inconclusive)
same,IC50,[9],4.83 µM (active)
same,EC50,[23],22 µM (active)
same,IC50,[10],> 20 µM (inactive)
same,EC50,[20],19.6 µM (active)
same,IC50,[11],8.19 µM (active)
same,IC50,[21],> 20 µM (inactive)
same,EC50,[24],10.7 µM (active)
same,EC50,[25],9.38 µM (active)
same,AC50,[26],11.8 µM (active)
same,AC50,[12],23.5 µM (active)
same,EC50,[13],22.6 µM (active)
COc1cccc(Cn2cc(-c3cccc(C(F)(F)F)c3)nn2)c1,EC50,[1],9.1 µM (active)
